{"source": "patent US20210002641A1", "about": "“COMPOSITIONS AND METHODS FOR TREATING GRAVES DISEASE” (The Regents of the University of Michigan, priority 2018, published 2021)", "key": {"3D N-OF organoids [1]": {"tested_on": "3D N-OF organoids", "assay": "Tissue stiffness of 3D N-OF organoids (microindentation compression test)", "assay_type": "cell-based, human", "details": "added day 1, kept to day 6; 10 μM GM6001, 5 mIU/ml TSH", "description": "(§1) Orbital adipose tissues were obtained from surgical waste samples of de-identified euthyroid patients with GO undergoing orbital decompression and from non-GO subjects without inflammatory orbital disease, who underwent cosmetic eyelid surgery. OFs were isolated and grown as previously described (49). Briefly, tissues were minced into small pieces, placed on 150 mm culture dishes, and submerged in growth medium (DMEM supplemented with 10% v/v FBS, 1% v/v L-glutamine, 1% v/v antibiotic-antimycotic) at a sufficient depth to cover the tissue chunks. Explants were cultured in a humidified incubator • (at 37° C. with 5% CO2), with growth medium changes every 2-3 days. OFs from five GO patients five non-GO patients were isolated and expanded for subsequent experiments. All experiments were performed using OFs of 3-6 passages after the initial cell isolation.\nA hanging droplet spheroid culture system was used to generate 3D organoids. […]\n(§2) The mechanical testing of the organoids was performed using the Microsquisher (CellScale, Waterloo, ON, Canada) as recently reported (53). […] The organoids were compressed to 50% deformation (as determined by microscopic camera) for 20 seconds. The force used to produce 50% stain of displacement was measured by the cantilever and data were reported as force/displacement (μN/μm)."}, "3D N-OF organoids [2]": {"tested_on": "3D N-OF organoids", "assay": "Immunofluorescent staining of ECM and HIF2A proteins in 3D N-OF organoids", "assay_type": "cell-based, human", "details": "immunofluorescence; 10 μM GM6001", "protocol": "(§3) A hanging droplet spheroid culture system was used to generate 3D organoids. To facilitate stable morphology, methylcellulose (Mehocel A4M) was added to the growth medium (52). Prior to seeding the hanging drop culture plate (#HDP1385, Sigma-Aldrich), cells were cultured in 100 mm or 150 mm dishes until reaching approximately 90% confluence. After washing with Hank's Balanced Salt Solution (HBSS), cells were detached using 0.25% Trypsin/EDTA and resuspended in growth medium. After centrifugation for 5 minutes at 300 g, the cell pellet was re-suspended in growth medium containing 0.25% w/v Methocel A4M. Volume was adjusted such that 20,000 cells were contained in 25 μL solution, and 25 μL drops were placed into each well of the drop culture plate (defined as day 0). Organoid medium (growth medium with 0.25% w/v methocel A4M) was used throughout the duration of spheroid culture. […]\n(§4) Adipogenic differentiation was induced with (growth or organoid) medium containing 250 nM dexamethasone, 10 nM T3, 10 μM troglitazone, and 1 μg/ml insulin on days 1-5, followed by medium with 10 μM troglitazone and 1 μg/ml insulin on days 6-11, then with medium alone on day 12. […] Fluorescence intensity of BODIPY-stained lipid droplets were measured using Nikon A1 confocal microscope (Tokyo, Japan) and quantified using Image J software version 1.51n (NIH, Bethesda, Md.). […]"}, "3D G-OF organoids [3]": {"tested_on": "3D G-OF organoids", "assay": "Immunofluorescent staining of ECM, LOX and HIF2A proteins in 3D G-OF organoids", "assay_type": "cell-based, human", "details": "for ECM deposition (collagen types, FN) in G-OF organoids: immunofluorescence, 10 μM GM6001, 30 nM T3, 5 mIU/ml TSH, 0.5 mM BAPN, day 1-6", "protocol": "(§5) A hanging droplet spheroid culture system was used to generate 3D organoids. To facilitate stable morphology, methylcellulose (Mehocel A4M) was added to the growth medium (52). Prior to seeding the hanging drop culture plate (#HDP1385, Sigma-Aldrich), cells were cultured in 100 mm or 150 mm dishes until reaching approximately 90% confluence. After washing with Hank's Balanced Salt Solution (HBSS), cells were detached using 0.25% Trypsin/EDTA and resuspended in growth medium. After centrifugation for 5 minutes at 300 g, the cell pellet was re-suspended in growth medium containing 0.25% w/v Methocel A4M. Volume was adjusted such that 20,000 cells were contained in 25 μL solution, and 25 μL drops were placed into each well of the drop culture plate (defined as day 0). Organoid medium (growth medium with 0.25% w/v methocel A4M) was used throughout the duration of spheroid culture. Every day, 14 μL culture medium was removed and 14 μL fresh culture medium added to each well.\n(§6) Adipogenic differentiation was induced with (growth or organoid) medium containing 250 nM dexamethasone, 10 nM T3, 10 μM troglitazone, and 1 μg/ml insulin on days 1-5, followed by medium with 10 μM troglitazone and 1 μg/ml insulin on days 6-11, then with medium alone on day 12. For the analysis of the lipid droplet formation, organoids were transferred to super-low attachment 6 well dishes and incubated in HBSS containing BODIPY (#D3922, Thermo Fisher Scientific) at 1:500 ratio by volume for 1 hour, then fixed in 4% paraformaldehyde (PFA) in PBS for 10 minutes at room temperature. Fluorescence intensity of BODIPY-stained lipid droplets were measured using Nikon A1 confocal microscope (Tokyo, Japan) and quantified using Image J software version 1.51n (NIH, Bethesda, Md.). Several compounds were added to droplets on day 1 and maintained at the same concentration until collection of organoids on day 6. For individual experiments, these included 10 μM GM6001, (global MMP inhibitor), 30 nM T3, 5 mIU/ml TSH, 30 nM T3+5 mIU/ml TSH, 0.5 mM BAPN (LOX inhibitor), and 1 μM, 5 μM or 10 μM HIF2A antagonist.\nOrganoids were fixed in 4% PFA/PBS overnight with or without permeabilization in 0.5% Triton X-100 in PBS for 1 hour. To stain extracellular collagen and fibronectin, no permeabilization was performed, and all the detergents were excluded from the subsequent procedures. After blocking in 3% BSA/0.1% PBST for 3 hours at room temperature, organoids were washed 3 times for 30 minutes with PBST. Samples were incubated with primary antibody overnight at 4° C. […]"}, "3D G-OF organoids [4]": {"tested_on": "3D G-OF organoids", "assay": "Tissue stiffness of 3D G-OF organoids (microindentation compression test)", "assay_type": "cell-based, human", "details": "for tissue stiffness of 3D G-OF organoids: added day 1, kept to day 6, 10 μM GM6001, 30 nM T3, 5 mIU/ml TSH, 0.5 mM BAPN, 1, 5 or 10 μM HIF2A antagonist", "description": "as §1, §5\nas §6, with “Fluorescence intensity of BODIPY-stained lipid droplets were measured using Nikon A1 confocal microscope (Tokyo, Japan) and quantified using Image J software version 1.51n (NIH, Bethesda, Md.).” left out\nThe mechanical testing of the organoids was performed using the Microsquisher (CellScale, Waterloo, ON, Canada) as recently reported (53). The device consists of a microscale parallelplate compression system equipped with a 406-μm diameter cantilever. Organoids placed on a 3 mm-square plate for analysis. Immediately following collecting, organoids were placed in a 40 mL HBSS fluid bath at 37° C. and the cantilever was lowered until the upper compression plate was in contact with the top of the organoid. The organoids were compressed to 50% deformation (as determined by microscopic camera) for 20 seconds. The force used to produce 50% stain of displacement was measured by the cantilever and data were reported as force/displacement (μN/μm)."}, "3D G-OF organoids [5]": {"tested_on": "3D G-OF organoids", "assay": "Organoid size (cross-sectional area) of 3D G-OF organoids", "assay_type": "cell-based, human", "details": "T3 30 nM, TSH 5 mIU/ml, or combination; 6-day time course", "protocol": "as §3, with “A4M.” for “A4M. Volume was adjusted such that 20,000 cells were contained in 25 μL solution, and 25 μL drops were placed into each well of the drop culture plate (defined as day 0). Organoid medium (growth medium with 0.25% w/v methocel A4M) was used throughout the duration of spheroid culture.”\nas §4\nBright field images of each organoid were captured in 4× or 10× objective lenses using inverted microscope (Olympus IX70). The largest cross-sectional area (CSA) was calculated using Image J software version 1.51n. […] Intensity of immunofluorescent target proteins was quantified using NIH ImageJ software. […]"}, "mouse OF organoids": {"tested_on": "mouse OF organoids", "assay": "Tissue stiffness of 3D mouse OF organoids expressing mutant HIF2A (HIF2dPA)", "assay_type": "cell-based", "details": "adeno-Cre-induced HIF2dPA", "protocol": "ROSA26-STOP-HIF2dPA (flox/flox) mice were provided by Dr. Emestina Schipani (University of Michigan), and used for the isolation of orbital adipose tissue. Cells isolated from this depot were cultivated as previously reported (50) and cultured in a standard growth medium. A degradation-resistant HIF2A mutant was introduced by adenoviral Cre (Vector; Ad5 CMV-Cre)-recombinase by incubation for 16 hours with the virus. Adenoviral GFP (Vector; Ad5 CMV eGFP.dIE3) or Empty (Vector: Ad5 CMV pLpA.dIE3)-recombinase was used as controls.\nA hanging droplet spheroid culture system was used to generate 3D organoids. To facilitate stable morphology, methylcellulose (Mehocel A4M) was added to the growth medium (52). Prior to seeding the hanging drop culture plate (#HDP1385, Sigma-Aldrich), cells were cultured in 100 mm or 150 mm dishes until reaching approximately 90% confluence. After washing with Hank's Balanced Salt Solution (HBSS), cells were detached using 0.25% Trypsin/EDTA and resuspended in growth medium. […]\nas §2, with “(μN/μm). […]” for “(μN/μm).”"}, "[6]": {"details": "listed as allosteric HIF2A antagonist"}}, "data": [{"molecule": "CNC(=O)[C@H](Cc1c[nH]c2ccccc12)NC(=O)[C@@H](CC(=O)NO)CC(C)C", "note": "[GM6001]", "values": [{"measurement": "tissue stiffness of 3D N-OF organoids", "setting": "3D N-OF organoids [1]", "result": "increased tissue stiffness"}, {"measurement": "ECM deposition (collagen types) in N-OF spheroids", "setting": "3D N-OF organoids [2]", "result": "significant accumulation of type I, IV, and VI collagens"}, {"measurement": "ECM deposition (collagen types, FN) in G-OF organoids", "setting": "3D G-OF organoids [3]", "result": "significant accumulation of type I, IV, and VI collagens"}, {"measurement": "tissue stiffness of 3D G-OF organoids", "setting": "3D G-OF organoids [4]", "result": "increased tissue stiffness"}]}, {"molecule": "O=[N+]([O-])c1c(Nc2cc(F)cc(Cl)c2)ccc2nonc12", "note": "[C12H6ClFN4O3]", "values": [{"measurement": "protein levels of LOX and FN in G-OF organoids", "setting": "3D G-OF organoids [3]; HIF2A antagonist 1 μM, 5 μM or 10 μM", "result": "reducing protein levels of LOX and FN, in a dose-dependent manner"}, {"measurement": "tissue stiffness of M22-stimulated G-OF organoids", "setting": "3D G-OF organoids [4]; listed as C12H6ClFN4O03", "result": "reversed the tissue stiffness caused by TSHR activation"}, {"measurement": "tissue stiffness of M22-stimulated G-OF organoids", "setting": "3D G-OF organoids [4]; [6]", "result": "reverses"}, {"measurement": "tissue stiffness of TSH-stimulated G-OF organoids", "setting": "3D G-OF organoids [4]; listed as C12H6ClFN4O03", "result": "reversed the tissue stiffness caused by TSHR activation"}, {"measurement": "tissue stiffness of TSH-stimulated G-OF organoids", "setting": "3D G-OF organoids [4]; [6]", "result": "reverses"}, {"measurement": "tissue stiffness of 3D G-OF organoids", "setting": "3D G-OF organoids [4]", "result": "normalized the tissue stiffness"}]}, {"molecule": "N[C@@H](Cc1cc(I)c(Oc2ccc(O)c(I)c2)c(I)c1)C(=O)O", "note": "[T3, 3,3′,5-Triiodo-L-thyronine]", "values": [{"measurement": "organoid size (CSA) of G-OF organoids", "setting": "3D G-OF organoids [5]", "result": "significant reduction in CSA"}, {"measurement": "ECM deposition (collagen types, FN) in G-OF organoids", "setting": "3D G-OF organoids [3]", "result": "no discemable impact"}]}, {"molecule": "N#CCCN.O=C(O)/C=C/C(=O)O", "note": "[BAPN, 3-Aminopropionitrile fumarate salt]", "values": [{"measurement": "tissue stiffness of mouse OF organoids with mutant HIF2A expression", "setting": "mouse OF organoids", "result": "completely ameliorated the increased tissue stiffness"}, {"measurement": "ECM deposition (collagen types, FN) in G-OF organoids", "setting": "3D G-OF organoids [3]", "result": "effectively suppressed the deposition of collagens type I and IV, FN, but not collagen type III and VI"}, {"measurement": "tissue stiffness of 3D G-OF organoids", "setting": "3D G-OF organoids [4]", "result": "reduction of tissue stiffness"}]}]}
